Experimental findings from US20050288307A1, “Anti-viral compounds” (priority 2002, published 2005) are described below.

The target of data set [1] is SAPK2a (Homo sapiens, UniProt Q16539). Put plainly: Kinase specificity panel: SAPK2a. The format is biochemical. The note with it: Table 2.
The target of data set [2] is ERK2 (Homo sapiens, UniProt P28482). Description: Kinase specificity panel: ERK2. Particulars: Table 2. Format: biochemical.
Data set [3] deals with Akt/PKB (Homo sapiens, UniProt P31749). Put plainly: Kinase specificity panel: Akt/PKB. The format is biochemical. The note with it: Table 2.
Akt/PKB, sequence (P31749 whole entry): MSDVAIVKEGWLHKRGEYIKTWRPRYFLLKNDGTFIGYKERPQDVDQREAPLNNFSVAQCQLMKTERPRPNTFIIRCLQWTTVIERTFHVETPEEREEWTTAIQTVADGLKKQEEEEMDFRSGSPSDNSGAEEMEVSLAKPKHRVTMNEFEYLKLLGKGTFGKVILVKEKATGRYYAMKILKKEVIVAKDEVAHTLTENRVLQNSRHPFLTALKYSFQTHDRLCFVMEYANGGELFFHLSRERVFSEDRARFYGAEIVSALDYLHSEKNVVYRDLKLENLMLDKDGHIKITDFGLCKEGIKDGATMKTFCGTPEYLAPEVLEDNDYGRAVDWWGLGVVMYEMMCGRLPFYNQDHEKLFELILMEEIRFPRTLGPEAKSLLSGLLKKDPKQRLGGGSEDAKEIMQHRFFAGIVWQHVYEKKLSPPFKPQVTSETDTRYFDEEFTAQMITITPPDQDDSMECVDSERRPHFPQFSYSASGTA
Data set [4] deals with CDK7/cyclin H (Homo sapiens, UniProt P50613). Put plainly: CDK7 assay (CTD peptide substrate). The format is biochemical. The note with it: read-out: Average IC50 CDK7 cyclin H. The method, then:
CTD peptide substrate (biotinyl-Ahx-(Tyr-Ser-Pro-Thr-Ser-Pro-Ser)4-NH2; 1-2 mg/mL) and recombinant human CDK7/cyclin H, CDK9/cyclin T1, or CDK9/cyclin K (0.5-2 μg) were incubated for 45 min at 30° C. in the presence of varying amounts of test compound in 20 mM MOPS pH 7.2, 25 mM β-glycerophosphate, 5 mM EGTA, 1 mM DTT, 1 mM sodium vanadate, 15 mM MgCl2, and 100 μM ATP (containing a trace amount of ^32PγATP) in a total volume of 25 μL in a 96-well microtiter plate. The reaction was stopped by placing the plate on ice for 2 min. Avidin (50 μg) was added to each well, and the plate was incubated at room temp for 30 min. The samples were transferred to a 96-well P81 filter plate, and washed (4×200 μL per well) with 75 mM phosphoric acid. Microscint 40 scintillation liquid (50 μL) was added to each well, and the amount of ^32P incorporation for each sample was measured using a Packard Topcount microplate scintillation counter.

Data set [5] concerns the target T1, PKC (Homo sapiens, UniProt P17252).
T1 construct: 6xHis (C); made in house; host or cells: Sf9 insect cells (baculovirus)
Put plainly: PKC kinase assay (Histone 3 phosphorylation). The format is biochemical. The note with it: Table 2. As for the experimental part: PKCα kinase activity may be measured by the incorporation of radio-labeled phosphate in Histone 3, as described. The reaction mixture (total volume 65 μl) consist of 50 mM Tris-HCl, 1 mM Calcium acetate, 3 mM DTT, 0.03 mg/ml Phosphatidylserine, 2.4 μg/ml PMA, 0.04% NP40, 12 mM Mg/Cl, purified PKCα-100 ng, Histone 3, 0.2 mg/ml, 100 μM ATP, 0.2 μCi [γ-^32P]-ATP. The reaction is carried over 15 min at 37° C. in microplate shaker and is stopped by adding 10 μl 75 mM orthophosphoric acid and placing the plate on ice. 50 μl of the reaction mixture is transferred onto P81 filterplate and after washing off the free radioactive phosphate (3 times with 200 μl 75 mM orthophosphoric acid per well) 50 μl of scintillation liquid (Microscint 40) were added to each well and the radioactivity is measured on Scintillation counter (Topcount, HP).

For data set [6], the system named is CaMKII. The format is biochemical. Particulars: Table 2.
Data set [7] has as its target CDK1/Cyclin B (Homo sapiens, UniProt P06493). Description: CDK1/cyclin B kinase assay (GST-Rb phosphorylation).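 Further: Enzyme: His-tagged CDK1/Cyclin B co-expressed in baculovirus-infected Sf9 insect cells, purified via metal-chelate chromatography.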
Experimental: (§1) His-tagged CDK2/Cyclin E and CDK1/Cyclin B may be co-expressed and PKCα singularly expressed in Sf 9 insect cells infected with the appropriate baculovirus constructs. The cells are harvested two days after infection by low speed centrifugation and the proteins purified from the insect cell pellets by Metal-chelate chromatography. Briefly, the insect cell pellet is lysed in Buffer A (10 mM Tris-HCl, pH 8.0, 150 mM NaCl, 0.02% NP40 and 5 mM β-marcaptoethanol, 1 mM NaF. 1 mM Na3VO4 and Protease Inhibitors Coctail (Sigma) containing AEBSF, pepstatin A, E 64, bestatin, leupeptin) by sonication. The soluble fraction is cleared by centrifugation and loaded onto Ni-NTA-Agarose (Quiagen). Non bound proteins were washed off with 300 mM NaCl, 5-15 mM Imidazole in Buffer A and the bound proteins eluted with 250 mM Imidazole in Buffer A. The purified proteins are extensively dialyzed against Storage buffer (20 mM HEPES pH 7.4, 50 mM NaCl, 2 mM DTT, 1 mM EDTA, 1 mM EGTA, 0.02% NP40, 10% v/v Glycerol) aliquoted and stored at −70° C.
Data set [8] concerns the target CDK2/cyclin A (Homo sapiens, UniProt P24941). Description: CDK2/cyclin A kinase assay.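 Further: Read-out is incorporated radioactivity retained on P81 filter plates and quantified by scintillation counting.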 Format: biochemical. The note with it: Table 3; read-out: Average IC50 CDK2 cyclin A2.
Experimental: Reactions were stopped on ice, followed by filtration through p81 filterplates (Whatman Polyfiltronics, Kent, UK). After washing 3 times with 75 mM orthophosphoric acid, plates were dried, scintillant added and incorporated radioactivity measured in a scintillation counter (TopCount, Packard Instruments, Pangboume, Berks, UK).
In data set [9] the target is T2, CDK2/Cyclin E (Homo sapiens, UniProt P24941).
T2 construct: His; made in house; host or cells: Sf9 insect cells (baculovirus)
Put plainly: CDK2/cyclin E kinase assay (GST-Rb phosphorylation).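 Further: enzyme source: His-tagged CDK2/cyclin E complex co-expressed recombinantly in Sf9 insect cells using baculovirus constructs.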 The format is biochemical. The note with it: read-out: Average IC50 CDK2 cyclin E1.
Experimental: as §1

Data set [10] has as its target CDK4/Cyclin D1 (Homo sapiens, UniProt P11802). Description: CDK4/cyclin D1 kinase assay (GST-Rb phosphorylation). The format is biochemical. Particulars: read-out: Average IC50 CDK4 cyclin D1.
Data set [11] concerns the target CDK9/cyclin T1 (Homo sapiens, UniProt P50750). Description: CDK9 assay (CTD peptide substrate). The format is biochemical. Particulars: read-out: Average IC50 CDK9 cyclin T1. Put shortly: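 Recombinant human CDK7/cyclin H or CDK9/cyclin T1 with biotinylated CTD peptide, 45 min at 30 °C, pH 7.2 MOPS buffer, 15 mM MgCl2, 100 μM ATP with trace [γ-32P]ATP. Avidin capture on P81 filters, phosphoric acid washes, 32P incorporation by scintillation counting.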

The subject of data set [12] is HIV-1. Put plainly: Anti-viral cell-based assays. The note with it: result in words.
Data set [13] can be described thus: Compound cytotoxicity in PBMC assay plates (MTS cell viability). The note with it: human, TC50 (concentration decreasing cell viability by 50%), HIV-1RoJo/PBMC.
Data set [14] deals with HIV-1RoJo/PBMC. Description: Anti-HIV efficacy in fresh human PBMCs, strain RoJo. The note with it: HIV-1RoJo/PBMC; for IC50: Human immunodeficiency virus 1, read-out: IC50 (concentration inhibiting virus replication by 50%); for IC90: Human immunodeficiency virus 1, read-out: IC90 (concentration inhibiting virus replication by 90%). The format is cell-based. The method, then:
Fresh PBMCs, seronegative for HIV and HBV, were isolated from screened donors (Interstate Blood Bank, Inc. Memphis, Tenn.). Cells were pelleted/washed 2-3 times by low speed centrifugation and re-suspension in PBS to remove contaminating platelets. […] Banded PBMCs were gently aspirated from the resulting interface and subsequently washed with PBS by low speed centrifugation. […] The cells were allowed to incubate at 37° C. […] IL-2 is included in the culture medium to maintain the cell division initiated by the PHA mitogenic stimulation. PBMCs were maintained in this with bi-weekly medium changes until used in the assay protocol. Cells were kept in culture for a maximum of two weeks before being deemed too old for use in assays and discarded. Monocytes were depleted from the culture as the result of adherence to the tissue culture flask.
Tritiated thymidine triphosphate (^3H-TTP, 80 Ci/mmol, NEN) was received in 1:1 dH2O:Ethanol at 1 mCi/mL. Poly rA:oligo dT template:primer (Pharmacia) was prepared as a stock solution, followed by aliquoting and storage at −20° C. The RT reaction buffer was prepared fresh on a daily basis. The final reaction mixture was prepared by combining ^3H-TTP, dH2O, poly rA:oligo dT stock and reaction buffer. This reaction mixture was placed in a round bottom microtiter plate and supernatant containing virus was added and mixed. The plate was incubated at 37° C. for 60 minutes. Following incubation, the reaction volume was spotted onto DE81 filter-mats (Wallac), in a sodium phosphate buffer or 2×SSC (Life Technologies). Next they were washed in distilled water, in 70% ethanol, and then dried. Incorporated radioactivity (counts per minute, CPM) was quantified using standard liquid scintillation techniques.

Like-named read-outs stand apart in the source and are kept apart here. A value given as a limit tells only on which side of the number the result lay.

CDK9/cyclin T1, sequence (P50750 whole entry): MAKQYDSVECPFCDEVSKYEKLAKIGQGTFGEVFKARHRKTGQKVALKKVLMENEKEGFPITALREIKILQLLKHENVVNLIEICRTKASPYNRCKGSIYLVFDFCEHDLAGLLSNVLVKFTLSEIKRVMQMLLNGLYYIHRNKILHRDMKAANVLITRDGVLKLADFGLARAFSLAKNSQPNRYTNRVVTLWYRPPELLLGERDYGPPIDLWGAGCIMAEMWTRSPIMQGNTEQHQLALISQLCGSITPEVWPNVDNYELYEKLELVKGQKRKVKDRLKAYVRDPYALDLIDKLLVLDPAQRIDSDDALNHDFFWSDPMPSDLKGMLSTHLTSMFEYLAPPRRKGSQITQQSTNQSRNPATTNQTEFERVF
CDK9/cyclin T1, sequence (O60563 whole entry partner): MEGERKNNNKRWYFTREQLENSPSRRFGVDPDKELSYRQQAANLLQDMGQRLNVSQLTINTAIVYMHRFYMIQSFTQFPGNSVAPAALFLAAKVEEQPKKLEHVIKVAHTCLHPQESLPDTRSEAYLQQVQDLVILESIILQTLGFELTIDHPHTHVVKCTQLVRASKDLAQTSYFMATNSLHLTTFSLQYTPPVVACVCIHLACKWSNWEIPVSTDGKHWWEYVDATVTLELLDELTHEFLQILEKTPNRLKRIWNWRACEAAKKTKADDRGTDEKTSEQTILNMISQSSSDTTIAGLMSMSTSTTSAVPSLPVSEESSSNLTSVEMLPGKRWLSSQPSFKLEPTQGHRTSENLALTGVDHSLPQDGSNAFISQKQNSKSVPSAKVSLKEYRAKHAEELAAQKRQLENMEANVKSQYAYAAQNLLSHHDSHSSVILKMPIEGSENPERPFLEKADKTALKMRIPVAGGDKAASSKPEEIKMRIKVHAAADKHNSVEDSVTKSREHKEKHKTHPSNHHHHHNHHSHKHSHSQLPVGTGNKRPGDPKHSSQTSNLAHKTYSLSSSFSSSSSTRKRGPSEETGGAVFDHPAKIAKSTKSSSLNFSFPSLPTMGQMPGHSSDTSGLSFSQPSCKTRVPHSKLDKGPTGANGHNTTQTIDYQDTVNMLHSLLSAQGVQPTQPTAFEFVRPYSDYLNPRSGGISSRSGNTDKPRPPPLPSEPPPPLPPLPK
CDK1/Cyclin B, sequence (P06493 whole entry, species assumed): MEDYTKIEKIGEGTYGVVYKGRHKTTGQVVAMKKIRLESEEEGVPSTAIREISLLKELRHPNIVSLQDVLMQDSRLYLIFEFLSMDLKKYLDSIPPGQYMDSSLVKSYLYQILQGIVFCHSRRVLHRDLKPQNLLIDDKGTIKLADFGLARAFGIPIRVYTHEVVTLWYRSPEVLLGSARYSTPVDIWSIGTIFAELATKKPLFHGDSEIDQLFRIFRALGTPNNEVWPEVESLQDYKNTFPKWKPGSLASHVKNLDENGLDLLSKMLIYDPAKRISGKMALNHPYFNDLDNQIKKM
CDK1/Cyclin B, sequence (P14635 whole entry partner, species assumed): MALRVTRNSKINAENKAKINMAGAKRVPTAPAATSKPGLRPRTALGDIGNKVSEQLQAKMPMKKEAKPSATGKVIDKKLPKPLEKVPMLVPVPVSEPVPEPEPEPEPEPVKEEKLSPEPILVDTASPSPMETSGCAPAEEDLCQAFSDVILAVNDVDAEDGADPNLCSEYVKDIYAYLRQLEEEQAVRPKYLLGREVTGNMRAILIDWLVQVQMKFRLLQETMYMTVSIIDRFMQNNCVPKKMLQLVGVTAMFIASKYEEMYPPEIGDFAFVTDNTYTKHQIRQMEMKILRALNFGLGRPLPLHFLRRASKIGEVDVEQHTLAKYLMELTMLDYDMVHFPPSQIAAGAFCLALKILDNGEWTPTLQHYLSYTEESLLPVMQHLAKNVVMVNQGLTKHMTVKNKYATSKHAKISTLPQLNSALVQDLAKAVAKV
ERK2, sequence (P28482 whole entry, species assumed): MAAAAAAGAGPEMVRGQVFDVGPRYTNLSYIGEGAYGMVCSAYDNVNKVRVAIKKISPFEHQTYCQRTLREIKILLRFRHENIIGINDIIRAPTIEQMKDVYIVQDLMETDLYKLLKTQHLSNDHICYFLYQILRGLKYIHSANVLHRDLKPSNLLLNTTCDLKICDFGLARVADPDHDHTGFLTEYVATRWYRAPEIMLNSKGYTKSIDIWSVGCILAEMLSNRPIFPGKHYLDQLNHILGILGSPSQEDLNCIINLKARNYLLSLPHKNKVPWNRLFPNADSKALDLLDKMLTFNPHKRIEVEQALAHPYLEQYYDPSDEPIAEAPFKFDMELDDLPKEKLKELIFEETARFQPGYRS
SAPK2a, sequence (Q16539 whole entry, species assumed): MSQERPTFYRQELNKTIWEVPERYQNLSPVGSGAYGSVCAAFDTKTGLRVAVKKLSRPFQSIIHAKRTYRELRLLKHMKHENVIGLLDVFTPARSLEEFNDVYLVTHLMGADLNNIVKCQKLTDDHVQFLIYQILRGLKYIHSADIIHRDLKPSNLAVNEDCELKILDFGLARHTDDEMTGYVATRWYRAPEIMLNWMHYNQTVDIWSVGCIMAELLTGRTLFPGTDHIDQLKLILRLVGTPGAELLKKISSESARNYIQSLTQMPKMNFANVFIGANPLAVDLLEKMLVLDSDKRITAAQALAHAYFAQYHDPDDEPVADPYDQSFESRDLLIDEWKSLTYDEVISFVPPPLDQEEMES
CDK7/cyclin H, sequence (P50613 whole entry): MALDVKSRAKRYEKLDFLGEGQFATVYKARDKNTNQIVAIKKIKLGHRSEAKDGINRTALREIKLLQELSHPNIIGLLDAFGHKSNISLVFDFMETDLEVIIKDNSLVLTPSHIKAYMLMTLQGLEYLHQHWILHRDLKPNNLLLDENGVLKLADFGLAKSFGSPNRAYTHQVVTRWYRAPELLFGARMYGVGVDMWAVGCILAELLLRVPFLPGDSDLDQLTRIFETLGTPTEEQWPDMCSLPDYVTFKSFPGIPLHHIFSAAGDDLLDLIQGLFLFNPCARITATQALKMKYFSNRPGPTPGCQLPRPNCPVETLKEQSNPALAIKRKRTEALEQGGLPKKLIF
CDK7/cyclin H, sequence (P51946 whole entry partner): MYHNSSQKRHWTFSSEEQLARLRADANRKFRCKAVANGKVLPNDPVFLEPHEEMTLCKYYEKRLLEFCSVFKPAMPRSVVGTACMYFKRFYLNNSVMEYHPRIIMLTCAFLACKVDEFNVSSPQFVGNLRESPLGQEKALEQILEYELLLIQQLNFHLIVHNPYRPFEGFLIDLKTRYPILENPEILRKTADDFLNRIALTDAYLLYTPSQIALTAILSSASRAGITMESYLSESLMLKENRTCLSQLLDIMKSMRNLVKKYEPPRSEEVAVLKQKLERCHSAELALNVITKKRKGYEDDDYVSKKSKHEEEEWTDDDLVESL
CDK4/Cyclin D1, sequence (P11802 whole entry, species assumed): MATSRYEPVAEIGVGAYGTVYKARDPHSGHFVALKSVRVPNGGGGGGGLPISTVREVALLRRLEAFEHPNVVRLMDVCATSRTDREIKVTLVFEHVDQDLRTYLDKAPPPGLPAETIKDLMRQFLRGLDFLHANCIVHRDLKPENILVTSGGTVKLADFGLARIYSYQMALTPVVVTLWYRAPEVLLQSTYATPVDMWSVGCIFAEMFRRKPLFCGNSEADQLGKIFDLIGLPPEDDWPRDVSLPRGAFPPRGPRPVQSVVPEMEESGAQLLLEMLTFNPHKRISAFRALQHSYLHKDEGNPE
CDK4/Cyclin D1, sequence (P24385 whole entry partner, species assumed): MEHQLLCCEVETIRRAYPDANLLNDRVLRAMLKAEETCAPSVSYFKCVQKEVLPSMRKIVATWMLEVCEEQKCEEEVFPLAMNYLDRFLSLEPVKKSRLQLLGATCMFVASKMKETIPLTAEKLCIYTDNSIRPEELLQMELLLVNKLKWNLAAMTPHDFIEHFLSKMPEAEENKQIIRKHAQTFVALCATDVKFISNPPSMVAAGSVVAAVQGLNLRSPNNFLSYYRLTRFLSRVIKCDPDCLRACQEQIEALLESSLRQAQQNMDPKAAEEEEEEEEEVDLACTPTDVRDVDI

For the compound `Cc1nc(C)c(-c2ccnc(Nc3ccc(C(F)(F)F)cc3)n2)s1` [Compound 15, [4-(2,4-Dimethyl-thiazol-5-yl)-pyrimidin-2-yl]-(4-trifluoromethyl-phenyl)-amine], the IC50 in data set [1] is more than 50 µM; in data set [2], more than 50 µM; in [3] it was more than 50 µM; in [4] (Table 2) it was more than 100000 nM; in data set [4] (Table 3), more than 100000 nM; in data set [5], more than 50 µM. For the same compound, the figures for the IC50 in data set [6] and in [7] were more than 50 µM and 34000 nM, respectively.
Consider `Cc1nc(N)sc1-c1ccnc(Nc2cccc(O)c2)n1` [Compound 116, 3-[4-(2-Amino-4-methyl-thiazol-5-yl)-pyrimidin-2-ylamino]-phenol], for which the IC50 in data set [1] is 29 µM; in data set [2], 15 µM; in [3], 53 µM; in data set [4] (Table 2), 990 nM; in data set [5], 33 µM; in data set [6], 7.7 µM. The IC50 in [8] came out at 180 nM; in data set [9] (Table 2), 110 nM; in data set [10] (Table 2), 460 nM; in [11] (Table 2), 130 nM; in data set [7], 580 nM.
Turning to `Cc1nc(C)c(-c2ccnc(Nc3ccc(O)cc3)n2)s1` [Compound 28, 4-[4-(2,4-Dimethyl-thiazol-5-yl)-pyrimidin-2-ylamino]-phenol], the “anti-viral effectiveness as demonstrated by cell-based assays” value in data set [12] is given as “particularly effective anti-viral agents”. Also, the CC50 at 7 days in data set [13] was found to be 22 µM. For the same compound, the IC50 was found to be 2400 nM in [4] (Table 3); 280 nM in [14]; 280 nM in [9] (Table 3); 600 nM in data set [10] (Table 3); 460 nM in data set [11] (Table 3); 1800 nM in [7]. In [14], the “TI (therapeutic index: TC50/IC50)” value was 80. Moreover, the IC90 in data set [14] came out at 21 µM.
As to `Cc1nc(C)c(-c2ccnc(Nc3ccc(F)cc3F)n2)s1` [Compound 9, (2,4-Difluoro-phenyl)-[4-(2,4-dimethyl-thiazol-5-yl)-pyrimidin-2-yl]-amine], the IC50 was 40 µM in [1]; 55 µM in [2]; more than 50 µM in data set [3]; 40 µM in [5]; more than 50 µM in data set [6]; 6300 nM in [9] (Table 2). Moreover, the IC50 in data set [10] (Table 2) was more than 50000 nM; in [10] (Table 3), more than 50000 nM; in data set [7], 38000 nM.
For the compound `COc1ccc(Nc2nccc(-c3sc(C)nc3C)n2)cc1OC` [Compound 125, (3,4-Dimethoxy-phenyl)-[4-(2,4-dimethyl-thiazol-5-yl)-pyrimidin-2-yl]-amine], the “anti-viral effectiveness as demonstrated by cell-based assays” value in data set [12] is listed as “particularly effective anti-viral agents”. Also, in data set [13], half-maximal cytotoxicity (CC50 at 7 days) was put at 27 µM. Further, the IC50 in [4] (Table 3) is 5900 nM; in [14] it was 820 nM; in data set [8], 260 nM; in data set [9] (Table 3) it was 33 nM; in [10] (Table 3), 1100 nM; in [11] (Table 3), 590 nM. The compound also came in with an IC50 in data set [7] of 250 nM. Further, the “TI (therapeutic index: TC50/IC50)” value in data set [14] worked out at 33. For the same compound, the IC90 in [14] came to 0.97 µM.
For `Cc1nc(N)sc1-c1ccnc(Nc2ccc(I)c([N+](=O)[O-])c2)n1` [Compound 117, [4-(2-Amino-4-methyl-thiazol-5-yl)-pyrimidin-2-yl]-(4-iodo-3-nitro-phenyl)-amine], the IC50 in [1] is more than 100 µM; in [2] it was more than 100 µM; in data set [3] it was 70 µM; in data set [4] (Table 2) it was 360 nM; in data set [5] it was more than 100 µM; in [6], more than 100 µM. The IC50 worked out at 1700 nM in [8]; 280 nM in [9] (Table 2); 1400 nM in data set [10] (Table 2); 55 nM in [11] (Table 2); 1700 nM in data set [7].
As for `Cc1nc(C)c(-c2ccnc(Nc3cccc([N+](=O)[O-])c3)n2)s1` [Compound 5, [4-(2,4-Dimethyl-thiazol-5-yl)-pyrimidin-2-yl]-(3-nitro-phenyl)-amine], the IC50 in data set [1] was 40 µM; in [2], 40 µM; in data set [3], more than 50 µM; in [4] (Table 2), 13000 nM; in data set [5] it was 35 µM; in data set [6], more than 50 µM. This compound returned an IC50 in data set [7] of 17000 nM.
With `COc1ccc(Nc2nccc(-c3sc(C)nc3C)n2)cc1` [Compound 26, [4-(2,4-Dimethyl-thiazol-5-yl)-pyrimidin-2-yl]-(4-methoxy-phenyl)-amine], the IC50 in [1] was 45 µM; in [2] it was more than 50 µM; in [3], more than 50 µM; in data set [5], more than 50 µM; in data set [6], more than 50 µM; in data set [10] (Table 2), 2400 nM. Moreover, the IC50 in [7] was found to be 9000 nM.
Take `Cc1nc(C)c(-c2ccnc(Nc3cccc(C#N)c3)n2)s1` [Compound 36, 3-[4-(2,4-Dimethyl-thiazol-5-yl)-pyrimidin-2-ylamino]-benzonitrile]: the IC50 is more than 50 µM in data set [1]; more than 50 µM in data set [2]; more than 50 µM in data set [3]; 1700 nM in data set [4] (Table 2); more than 50 µM in data set [5]; more than 50 µM in data set [6]. Besides, the IC50 is 160 nM in [8]; 390 nM in data set [9] (Table 2); 390 nM in [9] (Table 3); 2900 nM in data set [10] (Table 2); 1000 nM in [11] (Table 2); 2500 nM in [7].

Usually CC50 stands for the concentration giving 50% cytotoxicity.
